Experimental findings from patent publication US20130231303A1, “5-HALOGENOPYRAZOLE(THIO)CARBOXAMIDES” (Bayer Intellectual Property GmbH, priority 2010, published 2013) are described below.

One data set relates to Alternaria solani. In words: Alternaria test (tomato)/preventive. The settings on record: preventive, 500 ppm, evaluated 7 days after inoculation. It is filed as in vivo. On the procedure: The plants remain for one day in an incubation cabinet at approximately 22° C. and a relative atmospheric humidity of 100%. Then the plants are placed in an incubation cabinet at approximately 20° C. and a relative atmospheric humidity of 96%.

Another data set has as its system Puccinia recondita. In words: Puccinia test (wheat)/preventive. Type of data set: in vivo. The settings on record: preventive, 500 ppm, evaluated 7-9 days after inoculation. As to the method: (§1) The plants remain for 48 hours in an incubation cabinet at 22° C. and a relative atmospheric humidity of 100%. Then the plants are placed in a greenhouse at a temperature of approximately 20° C. and a relative atmospheric humidity of approximately 80%.

The test system of a further data set is Pyrenophora teres. In words: Pyrenophora test (barley)/preventive. Type of data set: in vivo. The conditions noted are these: preventive, 500 ppm, evaluated 7-9 days after inoculation. As to the method:
as §1

The test system of data set [1] is Fusarium nivale (var. majus). In words: Fusarium nivale (var. majus)-test (wheat)/preventive. It is filed as in vivo. The conditions noted are these: preventive; for Efficacy: evaluated 5 days after inoculation. On the procedure:
After the spray coating has been dried, the plants are slightly injured by using a sandblast and afterwards they are sprayed with a conidia suspension of Fusarium nivale (var. majus). The plants are placed in the greenhouse under a translucent incubation cabinet at a temperature of approximately 10° C. and a relative atmospheric humidity of approximately 100%.

For data set [2], the system named is Blumeria graminis f.sp. hordei. In words: Blumeria test (barley)/preventive. It is filed as in vivo. The conditions noted are these: preventive, 500 ppm, evaluated 7 days after inoculation. On the procedure:
After the spray coating has been dried, the plants are dusted with spores of Blumeria graminis f.sp. hordei. The plants are placed in the greenhouse at a temperature of approximately 18° C. and a relative atmospheric humidity of approximately 80% to promote the development of mildew pustules.

A short description of data set [3]: logP by HPLC on reversed-phase column (EEC Directive 79/831 Annex V.A8). It is filed as physicochemical. As to the method:
In table 1, the logP values were determined in accordance with EEC Directive 79/831 Annex V.A8 by HPLC (High Performance Liquid Chromatography) on a reversed-phase column (C 18), using the method described below: Temperature: 40° C.; Mobile phases: 0.1% aqueous formic acid and acetonitrile; linear gradient from 10% acetonitrile to 90% acetonitrile. Calibration was carried out using unbranched alkan-2-ones (comprising 3 to 16 carbon atoms) with known logP values (determination of the logP values by the retention times using linear interpolation between two successive alkanones). lambda-max-values were determined using UV-spectra from 200 nm to 400 nm and the peak values of the chromatographic signals.

A further data set concerns Sphaerotheca fuliginea. In words: Sphaerotheca test (cucumber)/preventive. It is filed as in vivo. The conditions noted are these: preventive, 500 ppm, evaluated 7 days after inoculation. As to the method:
Then the plants are placed in a greenhouse at approximately 23° C. and a relative atmospheric humidity of approximately 70%.

Setting [4] is: HPLC, reversed-phase C 18, 40° C., 0.1% aqueous formic acid and acetonitrile gradient.

Molecules are shown by their SMILES. Where two headings read alike, the source gives them in different places.

For `CCC=C(C)c1sccc1NC(=O)c1c(C(F)F)nn(C)c1Cl` (mixture of isomers) [Example 22], the results for the Efficacy in the data set with Alternaria solani, in the data set on Puccinia recondita and in the data set with Pyrenophora teres were 94%, 80% and 94%, respectively.
For `CCCC=C(C)c1sccc1NC(=O)c1c(C(F)F)nn(C)c1Cl` (mixture of isomers) [Example 26], the Efficacy amounted to 75% in the data set on Alternaria solani and 89% in the data set on Pyrenophora teres.
`CCC=C(CCC)c1sccc1NC(=O)c1c(C(F)F)nn(C)c1Cl` (mixture of isomers) [Example 32] had an Efficacy with Puccinia recondita of 80%.
Take `CC(=CC(C)(C)C)c1sccc1NC(=O)c1c(C(F)F)nn(C)c1Cl` (mixture of isomers) [Example 33]: the Efficacy with Alternaria solani is 88%; in the data set with Puccinia recondita, 95%; in the data set with Pyrenophora teres, 94%.
Take `CC(=CCC(C)C)c1sccc1NC(=O)c1c(C(F)F)nn(C)c1Cl` (mixture of isomers) [Example 34]: the Efficacy in the data set on Pyrenophora teres amounted to 78%.
Regarding `CC(C)CC(C)c1sccc1NC(=O)c1cn(C)nc1C(F)(F)F` (stereo not shown) [Example 1.13 from EP-0737682, 1-methyl-N-[2-(4-methylpentan-2-yl)-3-thienyl]-3-(trifluoromethyl)-1H-pyrazole-4-carboxamide, reference compound], the Efficacy in data set [1] (250 ppm) amounted to 14%; in data set [1] (500 ppm), 43%. For the same compound, in data set [1] (dose of 250 ppm and 500 ppm (text summary of table G2)), the protection entry is “less than 50%”.
In the case of `CC(C)CCc1sccc1NC(=O)c1c(C(F)F)nn(C)c1Cl` [Example 1], the Efficacy in data set [1] (500 ppm) worked out at 80%; with Alternaria solani, 100%; in data set [2], 94%; in the data set on Puccinia recondita, 95%; in the data set with Pyrenophora teres it was 100%. For the same compound, the logP (in general, a log measure of how a compound divides between an organic and an aqueous phase) in data set [3] (setting [4]) was determined as 3.74.
For the compound `CCCC(C)c1sccc1NC(=O)c1c(C(F)F)nn(C)c1Cl` (stereo not shown) [Example 2], the Efficacy in the data set on Alternaria solani turned out to be 94%; in the data set on Puccinia recondita, 100%; with Pyrenophora teres, 100%. For the same compound, the log partition coefficient (logP) in data set [3] (setting [4]) is given as 3.70.
For `CCC(CC)Cc1sccc1NC(=O)c1c(C(F)F)nn(C)c1Cl` [Example 5], the results for the Efficacy in the data set with Alternaria solani, in the data set on Puccinia recondita and with Pyrenophora teres were 100%, 90% and 100%, respectively. The logP in data set [3] (setting [4]) worked out at 4.03.
Take `Cn1nc(C(F)F)c(C(=O)Nc2ccsc2CCC(C)(C)C)c1Cl` [Example 6]: the Efficacy in data set [1] (500 ppm) is given as 100%; with Alternaria solani, 95%; in data set [2], 94%; in the data set with Sphaerotheca fuliginea, 89%; with Puccinia recondita it was 100%; with Pyrenophora teres it was 100%. In data set [3] (setting [4]), this compound registered a logP of 4.01.
In the case of `CCCCC(C)c1sccc1NC(=O)c1c(C(F)F)nn(C)c1Cl` (stereo not shown) [Example 7], the results for the Efficacy (in data set [1] (500 ppm); with Puccinia recondita; with Pyrenophora teres) were 90%, 100% and 95%, respectively. This compound gave a log partition coefficient (logP) in data set [3] (setting [4]) of 4.25.
In the case of `CCCCC(C)c1sccc1NC(=O)c1c(C(F)F)nn(C)c1Cl` (stereo not shown) [Example 8], the figures for the Efficacy in the data set on Alternaria solani, in the data set on Puccinia recondita and in the data set with Pyrenophora teres were 94%, 95% and 100%, respectively. In data set [3] (setting [4]), this compound showed a logP of 4.13.
On to `CCC(c1sccc1NC(=O)c1c(C(F)F)nn(C)c1Cl)C(C)C` (stereo not shown) [Example 9], for which the Efficacy is listed as 94% in the data set with Alternaria solani, 80% in the data set with Puccinia recondita and 100% in the data set with Pyrenophora teres. This compound also had a lipophilicity (logP) in data set [3] (setting [4]) of 4.07.
With `CCC(C)C(C)c1sccc1NC(=O)c1c(C(F)F)nn(C)c1Cl` (stereo not shown) [Example 10], the figures for the Efficacy with Puccinia recondita and in the data set on Pyrenophora teres were 90% and 100%, respectively. The logP in data set [3] worked out at 3.99.
As for `CC(CCCC#N)c1sccc1NC(=O)c1c(C(F)F)nn(C)c1Cl` (stereo not shown) [Example 11], the Efficacy in the data set with Puccinia recondita turned out to be 100%; with Pyrenophora teres, 94%. This compound also gave a logP in data set [3] of 2.57.
For `Cn1nc(C(F)F)c(C(=O)Nc2ccsc2CC2CCCCC2)c1Cl` [Example 12], the Efficacy is 100% in the data set on Alternaria solani, 94% in data set [2], 95% in the data set with Puccinia recondita and 100% in the data set on Pyrenophora teres. This compound also came in with a lipophilicity (logP) in data set [3] (setting [4]) of 4.27.
Turning to `CCC(C)C(C)Cc1sccc1NC(=O)c1c(C(F)F)nn(C)c1Cl` (stereo not shown) [Example 13], the Efficacy in data set [1] (500 ppm) was 100%; with Alternaria solani, 95%; in data set [2], 100%; in the data set on Puccinia recondita, 90%; with Pyrenophora teres, 100%. This compound had a logP in data set [3] (setting [4]) of 4.41.
Turning to `CCCC(CCC)c1sccc1NC(=O)c1c(C(F)F)nn(C)c1Cl` [Example 14], the Efficacy in the data set with Puccinia recondita amounted to 70%; in the data set with Pyrenophora teres, 94%. The compound further yielded a lipophilicity (logP) in data set [3] of 4.54.
As for `CCC(CC(C)C)c1sccc1NC(=O)c1c(C(F)F)nn(C)c1Cl` (stereo not shown) [Example 15], the Efficacy in the data set with Alternaria solani is on record as 88%; in data set [2], 94%; in the data set on Puccinia recondita it was 90%; in the data set on Pyrenophora teres it was 100%. The lipophilicity (logP) in data set [3] (setting [4]) is given as 4.46.
With `CC(C)CCC(C)c1sccc1NC(=O)c1c(C(F)F)nn(C)c1Cl` (stereo not shown) [Example 16], the values for the Efficacy in the data set on Alternaria solani, in the data set with Puccinia recondita and with Pyrenophora teres were 88%, 100% and 94%, respectively. For the same compound, the logP in data set [3] (setting [4]) was 4.45.
In the case of `CC(CC(C)(C)C)c1sccc1NC(=O)c1c(C(F)F)nn(C)c1Cl` (stereo not shown) [Example 17], the Efficacy amounted to 94% in the data set with Alternaria solani, 100% with Sphaerotheca fuliginea, 100% in the data set on Puccinia recondita and 94% with Pyrenophora teres. This compound also registered a logP in data set [3] (setting [4]) of 4.29.
`Cn1nc(C(F)F)c(C(=S)Nc2ccsc2CC[Si](C)(C)C)c1F` [Example 20] registered a log partition coefficient (logP) in data set [3] of 4.46.
Consider `CC(c1sccc1NC(=O)c1c(C(F)F)nn(C)c1Cl)C1CCCCC1` (stereo not shown) [Example 21], for which the Efficacy in the data set on Alternaria solani worked out at 95%; in the data set on Puccinia recondita, 95%; in the data set on Pyrenophora teres it was 100%. Further, in data set [3] (setting [4]), the logP is 4.56.
Take `Cn1nc(C(F)F)c(C(=O)Nc2ccsc2C=CC(C)(C)C)c1Cl` [Example 23]: the Efficacy in the data set with Alternaria solani is 70%; with Puccinia recondita it was 90%; in the data set with Pyrenophora teres, 80%. In addition, the log partition coefficient (logP) in data set [3] (setting [4]) is listed as 3.92.
Take `CCC(=Cc1sccc1NC(=O)c1c(C(F)F)nn(C)c1Cl)CC` [Example 24]: the Efficacy in the data set on Puccinia recondita and in the data set on Pyrenophora teres was 90% each time. The same compound showed a logP in data set [3] of 4.06.
`CCCCC=Cc1sccc1NC(=O)c1c(C(F)F)nn(C)c1Cl` [Example 25] displayed a log partition coefficient (logP) in data set [3] of 4.12.
Take `CC=C(c1sccc1NC(=O)c1c(C(F)F)nn(C)c1Cl)C(C)C` [Example 27]: the Efficacy in the data set on Alternaria solani worked out at 75%; with Puccinia recondita, 80%; with Pyrenophora teres, 89%. For the same compound, the logP in data set [3] (setting [4]) was 4.26.
`CCC(C)=C(C)c1sccc1NC(=O)c1c(C(F)F)nn(C)c1Cl` [Example 28]: the Efficacy stood at 94% in the data set on Alternaria solani, 80% with Puccinia recondita and 100% in the data set on Pyrenophora teres. The same compound had a lipophilicity (logP) in data set [3] (setting [4]) of 4.23.
As for `Cn1nc(C(F)F)c(C(=O)Nc2ccsc2C=C2CCCCC2)c1Cl` [Example 30], the Efficacy in the data set on Alternaria solani amounted to 70%; in the data set on Pyrenophora teres, 80%. The same compound showed a log partition coefficient (logP) in data set [3] of 4.25.
Take `CCC(C)C(C)=Cc1sccc1NC(=O)c1c(C(F)F)nn(C)c1Cl` (stereo not shown) [Example 31]: the Efficacy in the data set on Pyrenophora teres is recorded as 70%. For the same compound, the lipophilicity (logP) in data set [3] (setting [4]) worked out at 4.41.
With `C=C(c1sccc1NC(=O)c1c(C(F)F)nn(C)c1Cl)C1CCCCC1` [Example 36], the results for the Efficacy in the data set with Puccinia recondita and in the data set with Pyrenophora teres were 80% and 95%, respectively.
In turn, `CC=C(c1ccccc1)c1sccc1NC(=O)c1c(C(F)F)nn(C)c1Cl` [Example 37] returned a logP in data set [3] of 3.70.
As for `Cn1nc(C(F)F)c(C(=O)Nc2ccsc2-c2ccccc2)c1F` [Example 38], the logP in data set [3] was determined as 3.11.
`Cc1ccc(-c2ccsc2NC(=O)c2c(C(F)F)nn(C)c2F)cc1` [Example 40] showed a log partition coefficient (logP) in data set [3] of 3.60.
On to `Cn1nc(C(F)F)c(C(=O)Nc2cc(-c3ccc(Cl)cc3)cs2)c1F` [Example 41], for which the logP in data set [3] is given as 3.87.
